How the values were obtained:
H3K9me2 in HCT116 cells = assay: HCT116 H3K9me2 in-cell western assay; assay type: cell-based; settings: Homo sapiens, HCT-116, 72 h, HCT116 cells, 72 hours incubation; read-out: H3K9me2 ICW IC50
Summary of the method: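 HCT116 cells (2,000/well) were treated for 72 h at 37° C, 5% CO2, with ten two-fold dilutions from 10 μM in duplicate. After PFA fixation, cells were stained overnight at 4° C with anti-H3K9me2, then with an 800 CW secondary plus DRAQ5.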

hERG potassium channels = hERG potassium channels (Homo sapiens, UniProt Q12809); assay: In vitro hERG assay (SyncroPatch whole-cell recording); settings: hERG IC50, SyncroPatch, room temperature
human EHMT1 982-1266 = molecular target: T1, human EHMT1 982-1266 (Homo sapiens, UniProt Q9H9B1); assay: EHMT1 enzyme assay on histone peptide substrate (3H-SAM SPA); settings: EHMT1 IC50, recombinant human EHMT1 982-1266, histone peptide substrate
T1 sequence (Q9H9B1 982-1266): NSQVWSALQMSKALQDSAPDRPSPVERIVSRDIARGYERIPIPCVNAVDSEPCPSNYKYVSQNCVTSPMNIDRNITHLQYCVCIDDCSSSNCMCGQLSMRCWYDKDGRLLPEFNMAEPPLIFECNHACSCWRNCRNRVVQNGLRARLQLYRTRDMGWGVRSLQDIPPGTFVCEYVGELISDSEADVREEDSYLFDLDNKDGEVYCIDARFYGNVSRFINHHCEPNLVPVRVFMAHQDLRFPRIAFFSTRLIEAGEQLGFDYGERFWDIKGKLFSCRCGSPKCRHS

human EHMT2 913-1193 = molecular target: T2, human EHMT2 913-1193 (Homo sapiens, UniProt Q96KQ7); assay: EHMT2 enzyme assay on histone peptide substrate (3H-SAM SPA); settings: EHMT2 IC50, recombinant human EHMT2 913-1193, histone peptide substrate
T2 sequence (Q96KQ7 913-1193): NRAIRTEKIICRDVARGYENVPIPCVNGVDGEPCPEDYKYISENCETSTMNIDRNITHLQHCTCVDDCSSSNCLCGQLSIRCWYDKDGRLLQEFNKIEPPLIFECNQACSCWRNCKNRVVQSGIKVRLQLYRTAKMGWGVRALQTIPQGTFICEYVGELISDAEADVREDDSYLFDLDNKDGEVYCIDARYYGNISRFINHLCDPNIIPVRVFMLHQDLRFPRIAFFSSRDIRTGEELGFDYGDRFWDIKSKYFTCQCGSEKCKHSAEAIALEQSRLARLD

hERG potassium channels, sequence (Q12809 whole entry): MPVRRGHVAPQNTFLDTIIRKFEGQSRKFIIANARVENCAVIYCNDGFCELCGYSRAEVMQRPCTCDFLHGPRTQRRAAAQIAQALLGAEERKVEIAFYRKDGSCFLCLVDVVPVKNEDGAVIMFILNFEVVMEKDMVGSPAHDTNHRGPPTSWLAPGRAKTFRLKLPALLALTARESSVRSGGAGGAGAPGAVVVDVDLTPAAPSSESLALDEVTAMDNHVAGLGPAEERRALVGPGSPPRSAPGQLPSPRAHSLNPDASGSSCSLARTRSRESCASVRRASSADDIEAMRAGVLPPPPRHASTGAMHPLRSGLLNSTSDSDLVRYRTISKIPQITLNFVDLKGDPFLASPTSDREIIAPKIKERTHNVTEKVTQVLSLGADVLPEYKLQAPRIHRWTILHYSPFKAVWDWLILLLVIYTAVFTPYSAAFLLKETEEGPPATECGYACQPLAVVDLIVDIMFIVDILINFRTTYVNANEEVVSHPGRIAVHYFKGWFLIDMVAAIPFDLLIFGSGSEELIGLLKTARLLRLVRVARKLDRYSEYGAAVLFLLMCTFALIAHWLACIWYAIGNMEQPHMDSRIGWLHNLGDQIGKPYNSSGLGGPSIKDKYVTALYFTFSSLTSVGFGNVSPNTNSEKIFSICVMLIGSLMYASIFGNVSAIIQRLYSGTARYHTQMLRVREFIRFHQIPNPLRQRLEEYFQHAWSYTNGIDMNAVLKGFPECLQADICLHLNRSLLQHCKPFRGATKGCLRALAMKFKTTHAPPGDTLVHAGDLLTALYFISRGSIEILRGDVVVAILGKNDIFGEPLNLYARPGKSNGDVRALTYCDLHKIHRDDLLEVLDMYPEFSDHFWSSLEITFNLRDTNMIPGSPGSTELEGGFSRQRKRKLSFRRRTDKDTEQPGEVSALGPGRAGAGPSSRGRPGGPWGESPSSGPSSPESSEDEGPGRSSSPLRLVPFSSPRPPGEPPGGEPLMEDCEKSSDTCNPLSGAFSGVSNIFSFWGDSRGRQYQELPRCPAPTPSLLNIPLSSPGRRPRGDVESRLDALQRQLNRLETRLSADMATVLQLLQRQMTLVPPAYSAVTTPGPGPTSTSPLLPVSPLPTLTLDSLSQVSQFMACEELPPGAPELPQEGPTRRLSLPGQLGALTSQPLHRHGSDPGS

| Compound | IC50 (H3K9me2 in HCT116 cells) [nM] | IC50 (human EHMT1 982-1266) [nM] | IC50 (human EHMT2 913-1193) [nM] | IC50 (hERG potassium channels) [nM] |
| --- | --- | --- | --- | --- |
| Cc1cc(NC2CCC2)nc(Nc2cc3c(c(C4=CCNCCC4)c2)OCC3)n1 [Compound 325] | 100 to 500 | < 100 | 100 to 500 | 2000 to 5000 |
| CNc1cc(C)nc(Nc2cc3c(c(C4C[C@@H]5CN(C)C[C@@H]5C4)c2)OCCO3)n1 (stereo partly shown) [Compound 329] | 100 to 500 | 100 to 500 | 500 to 2000 | > 10000 |
| CNc1ccnc(Nc2cc3c(c(C4=CCN(C)CCC4)c2)OCC3)n1 [Compound 331] | < 100 | < 100 | 100 to 500 | > 10000 |
| CNc1cc(C)nc(Nc2cc3c(c(C4=CCNCCC4)c2)CCO3)n1 [Compound 332] | 100 to 500 | 100 to 500 | 100 to 500 | > 10000 |
| CNc1cc(C)nc(Nc2cc3c(c(C4C[C@H]5CNC[C@H]5C4)c2)OCCO3)n1 (stereo partly shown) [Compound 334] | 100 to 500 | 100 to 500 | 500 to 2000 | > 10000 |
| CNc1ccnc(Nc2cc3c(c(C4=CCN(C)CCC4)c2)OCO3)n1 [Compound 335] | 100 to 500 | 100 to 500 | 100 to 500 | 5000 to 10000 |
| CNc1ccnc(Nc2cc3c(c(C4=CCNCCC4)c2)OCO3)n1 [Compound 336] | < 100 | < 100 | < 100 | 5000 to 10000 |
| CNc1cc(C)nc(Nc2cc3c(c(C4CCCNCC4)c2)OCCC3)n1 (stereo not shown) [Compound 341] | 100 to 500 | < 100 | 100 to 500 | > 10000 |
| CNc1cc(C)nc(Nc2cc3c(c(C4CCCNCC4)c2)OCCO3)n1 (stereo not shown) [Compound 348] | 100 to 500 | 100 to 500 | 100 to 500 | > 10000 |

Continued, in another order:

| IC50 (H3K9me2 in HCT116 cells) [nM] | IC50 (human EHMT1 982-1266) [nM] | IC50 (human EHMT2 913-1193) [nM] | Compound | IC50 (hERG potassium channels) [nM] |
| --- | --- | --- | --- | --- |
| < 100 | < 100 | < 100 | CNc1cc(C(C)C)nc(Nc2cc3c(c(C4=CCNCCC4)c2)OCC3)n1 [Compound 326] | 2000 to 5000 |
| < 100 | < 100 | < 100 | COCCNc1cc(C)nc(Nc2cc3c(c(C4=CCNCCC4)c2)OCC3)n1 [Compound 327] | > 10000 |
| < 100 | < 100 | < 100 | CNc1cc(C)nc(Nc2cc3c(c(C4=CCNCCC4)c2F)OCC3)c1 [Compound 328] | > 10000 |
| < 100 | < 100 | < 100 | CNc1ccnc(Nc2cc3c(c(C4=CCNCCC4)c2)OCC3)n1 [Compound 330] | > 10000 |
